According to article PMC8421406, “C9orf72-derived arginine-rich poly-dipeptides impede phase modifiers” (Nature Communications, 2021):
Where no end group is shown, it is not given here. HA = HA epitope tag

Test system: FUS droplets (MBP:FUS/MBP:FUS:EGFP) / Kapβ2
Experiment: Fluorescence microscopy of FUS droplets
Assay type: biochemical
Conditions: 16 μM Kapβ2, 16 μM Kapβ2–M9M complex, 50 μM PR20, repeated three times

For “PR20: twenty repeats of proline:arginine with an HA epitope tag at the C terminus, synthesized by SCRUM, Inc. (PRPRPRPRPRPRPRPRPRPRPRPRPRPRPRPRPRPRPRPR-{HA})”, the “Effect on FUS droplets (microscopy)” value was “not melted in the presence of PR20”.
